Assays:
Test in all cases: Bliss interaction score (quartile over a dose matrix) (fitness difference); higher = more antagonism (negative = synergy)
B. subtilis 168 = test system: B. subtilis 168
Outline: (§1)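 Fitness here means normalised growth, inferred for single drugs from the combination data. Growth was OD595 at entry into stationary phase, divided by the plate's robust no-drug mean and capped at 1. The Bliss score is observed minus expected fitness, with the expectation being the product, and its quartiles span technical, biological and donor/recipient replicates.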

S. aureus DSM 20231 = test system: S. aureus DSM 20231
Outline: as §1

S. aureus Newman = test system: S. aureus Newman
Outline: as §1

S. pneumoniae D39V = test system: S. pneumoniae D39V
Outline: as §1
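Further: first quartile when negative (synergy) and third quartile when positive (antagonism).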

| Compound | Bliss interaction score (B. subtilis 168) | Bliss interaction score (S. aureus DSM 20231) | Bliss interaction score (S. aureus Newman) | Bliss interaction score (S. pneumoniae D39V) |
| --- | --- | --- | --- | --- |
| Clc1ccc(COC(Cn2ccnc2)c2ccc(Cl)cc2Cl)c(Cl)c1 (stereo not given) [Miconazole] + COc1cc(Cc2cnc(N)nc2N)cc(OC)c1OC [Trimethoprim] | 0.0906 | 0.0514 | 0.0486 | -0.117 |
| Clc1ccc(COC(Cn2ccnc2)c2ccc(Cl)cc2Cl)c(Cl)c1 (stereo not given) [Miconazole] + Oc1cc(Cl)ccc1Oc1ccc(Cl)cc1Cl [Triclosan] | 0.0625 | 0.0712 | 0.0222 | 0.0535 |
| Cc1onc(-c2ccccc2)c1C(=O)N[C@@H]1C(=O)N2[C@@H]1SC(C)(C)[C@@H]2C(=O)O [Oxacillin] + C/C(=C\C(=O)OCCCCCCCCC(=O)O)C[C@@H]1OC[C@H](C[C@@H]2O[C@H]2[C@@H](C)[C@H](C)O)[C@@H](O)[C@H]1O [Pseudomonic acid] | 0.0424 | 0.0247 | 0.0232 | 0.158 |
| Cc1onc(-c2ccccc2)c1C(=O)N[C@@H]1C(=O)N2[C@@H]1SC(C)(C)[C@@H]2C(=O)O [Oxacillin] + CC1(C)S[C@@H]2[C@H](NC(=O)Cc3ccccc3)C(=O)N2[C@H]1C(=O)O [PenicillinG] | -0.0214 | 0.0796 | -0.0558 | -0.235 |
| Cc1onc(-c2ccccc2)c1C(=O)N[C@@H]1C(=O)N2[C@@H]1SC(C)(C)[C@@H]2C(=O)O [Oxacillin] + CC[C@H]1OC(=O)[C@H](C)C(=O)[C@H](C)[C@@H](O[C@@H]2O[C@H](C)C[C@H](N(C)C)[C@H]2O)[C@](C)(OC)C[C@@H](C)C(=O)[C@H](C)[C@H]2N(CCCCn3cnc(-c4cccnc4)c3)C(=O)O[C@]12C [Telithromycin] | -0.0301 | 0.0397 | 0.0304 | 0.112 |
| Cc1onc(-c2ccccc2)c1C(=O)N[C@@H]1C(=O)N2[C@@H]1SC(C)(C)[C@@H]2C(=O)O [Oxacillin] + Oc1cc(Cl)ccc1Oc1ccc(Cl)cc1Cl [Triclosan] | 0.025 | 0.0454 | 0.0273 | 0.0852 |
| C[n+]1ccc(-c2cc[n+](C)cc2)cc1 [Paraquat] + C/C(=C\C(=O)OCCCCCCCCC(=O)O)C[C@@H]1OC[C@H](C[C@@H]2O[C@H]2[C@@H](C)[C@H](C)O)[C@@H](O)[C@H]1O [Pseudomonic acid] | 0.0715 | 0.0093 | 0.0152 | -0.0863 |
| C[n+]1ccc(-c2cc[n+](C)cc2)cc1 [Paraquat] + CC1(C)S[C@@H]2[C@H](NC(=O)Cc3ccccc3)C(=O)N2[C@H]1C(=O)O [PenicillinG] | -0.0267 | -0.0239 | 0.0437 | -0.0591 |
| C[n+]1ccc(-c2cc[n+](C)cc2)cc1 [Paraquat] + CC[C@H]1OC(=O)[C@H](C)C(=O)[C@H](C)[C@@H](O[C@@H]2O[C@H](C)C[C@H](N(C)C)[C@H]2O)[C@](C)(OC)C[C@@H](C)C(=O)[C@H](C)[C@H]2N(CCCCn3cnc(-c4cccnc4)c3)C(=O)O[C@]12C [Telithromycin] | -0.0235 | 0.0414 | -0.0252 | 0.0949 |
| C[n+]1ccc(-c2cc[n+](C)cc2)cc1 [Paraquat] + Oc1cc(Cl)ccc1Oc1ccc(Cl)cc1Cl [Triclosan] | -0.188 | 0.0434 | -0.0576 | 0.058 |
| Cn1c2cccc(=O)c-2nc2ccccc21 [Pyocyanin] + CC[C@H]1OC(=O)[C@H](C)C(=O)[C@H](C)[C@@H](O[C@@H]2O[C@H](C)C[C@H](N(C)C)[C@H]2O)[C@](C)(OC)C[C@@H](C)C(=O)[C@H](C)[C@H]2N(CCCCn3cnc(-c4cccnc4)c3)C(=O)O[C@]12C [Telithromycin] | -0.0145 | 0.0313 | -0.0591 | -0.0564 |
| Cn1c2cccc(=O)c-2nc2ccccc21 [Pyocyanin] + Oc1cc(Cl)ccc1Oc1ccc(Cl)cc1Cl [Triclosan] | -0.0279 | 0.037 | 0.0494 | -0.0544 |
| CN(N=O)C(=O)N[C@@H](C=O)[C@@H](O)[C@H](O)[C@H](O)CO [Streptozotocin] + CC[C@H]1OC(=O)[C@H](C)C(=O)[C@H](C)[C@@H](O[C@@H]2O[C@H](C)C[C@H](N(C)C)[C@H]2O)[C@](C)(OC)C[C@@H](C)C(=O)[C@H](C)[C@H]2N(CCCCn3cnc(-c4cccnc4)c3)C(=O)O[C@]12C [Telithromycin] | 0.0498 | 0.0346 | -0.0223 | 0.0699 |
| CN(N=O)C(=O)N[C@@H](C=O)[C@@H](O)[C@H](O)[C@H](O)CO [Streptozotocin] + Cc1cc(NS(=O)(=O)c2ccc(N)cc2)no1 [Sulfamethoxazol] | -0.0496 | -0.0487 | 0.0639 | -0.0217 |
| CN(N=O)C(=O)N[C@@H](C=O)[C@@H](O)[C@H](O)[C@H](O)CO [Streptozotocin] + Oc1cc(Cl)ccc1Oc1ccc(Cl)cc1Cl [Triclosan] | 0.095 | 0.0542 | -0.0226 | -0.0506 |
